These results are taken from patent US10906909B2, “Treatment of cognitive and mood symptoms in neurodegenerative and neuropsychiatric disorders with ALPHA5-containing GABAA receptor agonists” (UWM Research Foundation, Inc., priority 2016, dated 2021).

The nature of data set [1]: Human liver microsome stability assay. It is filed as in vitro ADME. As to conditions: 10 μM compound; for half-life at 10 μM: human, liver microsomes, read-out: Half-life (min) (HumanLM). The procedure: (§1) Human and mouse liver microsomes were obtained fom BD Gentest.
(§2) Each evaluation included six independent assays carried out three at a time, on two different days
(§3) 2. For a total volume of Microsomal Assay Mixture (MAM) 390 μL, sufficient for seven time points, combine the following
(§4) 3. Sonicate MAM for 5 min and meanwhile thaw microsomes (20 mg/mL) (BD Gentest, Cat #452156) on ice.
(§5) 4. Aliquot 100 μL of ice cold ISTD into 7 separate 1.5 mL conical vials and label them the time points for 0, 10, 20, 40, 60, 90, and 120 min.
(§6) 5. Arrange the timer. Microsomes (Final concentration of 0.5 mg/mL) should be added to all time points except the zero time point.
(§7) 6. Add 50 μL of the MAM solution to the conical vial labelled as zero time point. Place the remaining MAM solution in the incubator (37° C.) for 5 min and initiate the reaction with addition of microsomes (8.8 μL) and record the time.
(§8) 7. At the end of each time interval remove 50 μL and add 100 μL to ISTD in conical vial, sonicate for 10 sec and spin down at 10,000 rpm for 5 minutes.
(§9) 8. Take 100 μL of supernatant and transfer to Spin-X HPLC filter tubes (Corning Incorporated, Cat #8169) and centrifuge at 13,000 rpm for 5 minutes and take 5 μL from this solution and dilute in 495 μL of LCMS grade methanol (Fischer scientific, CAS #67-56-1) in an 2 mL glass auto sampler vial (Microsolv, Cat #95025-WCV) 9. The samples are analyzed by LCMS-8040. (Shimadzu)
(§10) Calculation: From the peak area, calculate the following
(§11) The compounds are tested for the metabolic stability in the Human and Mouse Liver microsomes at 10 μM concentration.
(Microsomes from liver hold many membrane-bound enzymes, among them those of drug oxidation.)

Data set [2] concerns mice subjected to chronic restraint stress (CRS). In words: Y-maze alternation task, chronic restraint stress (CRS) mice. It counts as in vivo, mouse. Conditions: for Alternation rate (%): Dose 10 mg/kg; for effect on CRS-induced working memory deficit (percent alternation rate, Y-maze): 10 mg/kg i.p. 30 min before testing. The procedure: C57/B16 mice, males and females were ordered from Jackson Laboratories at 8 weeks old and were kept in normal housing conditions (12 h light ON cycle starting at 7 am/water and food ad libitum) for one week. During this week, animals were single housed and handled to reduce the anxiety-like response toward the experimenter. To induce a working memory deficit, mice were subjected to a chronic restraint stress protocol (CRS). They were placed in a 50 ml Falcon® tube, twice a day, for 1 hour during their diurnal cycle. The time of occurrence of the stress was randomized every day to avoid predictability. CRS was not applied on testing days. Y-maze test occurred 15 hours minimum after the last stressor.
Mice were first habituated to the Y-maze apparatus and distal cues during 2 consecutive days over a 10 min free exploration session (one session per day). The next day, animals performed a training session consisting in seven successive trials separated by a 30 s inter-trial interval (ITI); during this training session, mice were familiarized with the experimental procedure (opening and closing of the doors and confinement into the goal arms). For each trial, mice remained in the start-box for a 30 s ITI. Then, the door was opened and the mouse was allowed to enter freely one of the two goal arms; the chosen arm was closed and the choice was recorded. After a 30 s confinement period into the chosen arm, the mouse was removed and brought back to the start-box for a second trial identical to the first one and this procedure was repeated over the series of trials.
The same general procedure used in the training session was implemented 24 h later, except that the ITI was lengthened to 90 s. For this experiment, animals were acutely injected i.p. with vehicle or αPAM, 30 minutes before the beginning of the test. To dissociate memory deficits from an eventual progressive loss of motivation to alternate over the series, an 8th trial was added to the series which was separated from the 7th trial by a shorter ITI (5 s). All animals failing to alternate at the 8th trial were excluded. The mean alternation rate was calculated and was expressed in percentage (number of alternation done by the animal/total number of alternation possible×100)±SEM. The percentage of alternation during the entire task is considered as an index of working memory performance (50% of being a random alternation rate). Factorial ANOVA was applied to the data to reveal differences between groups. If the ANOVA was significant for group effect (p<0.05), Scheffe post-hoc analysis were conducted to identify which groups are different from each other.
All drugs were diluted in a vehicle solution containing 85% H2O, 14% propylene glycol (Sigma Aldrich) and 1% Tween 80 (Sigma Aldrich). Working solutions were prepared at a concentration of 10 mg/mL and administered i.p. adjusted to the body weight of each animal. Doses used were either 1, 5, 10 or 20 mg/kg. For all Y maze experiments, animals were acutely injected i.p. with vehicle or αPAM, 30 minutes before the beginning of the test.

Data set [3] in a line: Mouse liver microsome stability assay. It counts as in vitro ADME. As to conditions: 10 μM compound; for half-life at 10 μM: mouse, liver microsomes, read-out: Half-life (min) (MouseLM). Here is the method:
as §1, §2, §3, §4, §5, §6, §7, §8, §9, §10, §11

Data set [4] can be described thus: Pharmacokinetics in mice (plasma, liver, brain). Conditions: i.p. dosing at 3 mg/kg.
In the next data set the test system is HEPG2. In words: Cytotoxicity assay (CellTiter-Glo), HEPG2. It counts as cell-based, human. As to conditions: 48 hours incubation. Here is the method: (§12) Human liver hepatocellular carcinoma (HEPG2) and human embryonic kidney 293 (HEK293) cell lines were purchased (ATCC) and cultured in 75 cm2 flasks (CellStar). Cells were grown in DMEM/High Glucose (Hyclone, #SH3024301) media to which non-essential amino acids (Hyclone, #SH30238.01), 10 mM HEPES (Hyclone, #SH302237.01), 5×106 units of penicillin and streptomycin (Hyclone, #SV30010), and 10% of heat inactivated fetal bovine serum (Gibco, #10082147) were added. Cells were harvested using 0.05% Trypsin (Hyclone, #SH3023601), washed with PBS, and dispensed into sterile white, optical bottom 384-well plates (NUNC, #142762). After three hours, small molecule solutions were transferred with a Tecan Freedom EVO liquid handling system equipped with a 100 nL pin tool (V&P Scientific). The controls (E)-10-(bromotriphenylphosphoranyl)decyl 4-(4-(tert-butyl)phenyl)-4-oxobut-2-enoate (400 μM in DMSO, positive control) and DMSO (negative control). The cells were incubated for 48 hours followed by the addition of CellTiter-Glo™, a luminescence-based cell viability assay (Promega, Madison, Wis.). All luminescence readings were performed on a Tecan Infinite M1000 plate reader. The assay was carried out in quadruplet with three independent runs. The data was normalized to the controls and analyzed by nonlinear regression (GraphPad Prism).
Background: In ATP-based viability assays light output follows the ATP content of the culture.

In a further data set the test system is HEK293. Briefly: Cytotoxicity assay (CellTiter-Glo), HEK293. It is filed as cell-based, human. Conditions: 48 hours incubation. Here is the method: as §12
Data set [5] has as its system Female Swiss Webster mice. Briefly: Rotarod sensorimotor / locomotor coordination. It counts as in vivo, mouse. Conditions: 40 mg/kg oral gavage; 15 rpm, 3 min; 10, 30, 60 min after dosing. Here is the method:
Female Swiss Webster mice (10 weeks of age) from Charles River Laboratory, WIL, MA were used for the experiments. The animals were housed under specific pathogen-free conditions, under standard conditions of humidity, temperature and a controlled 12 h light and dark cycle and had free access to food and water. The sensorimotor rotarod test was carried out 10, 30 and 60 minutes after the injection. Mice were tested on a rotarod at 15 rpm for maximum 3 min and the time of fall was recorded. Falling before the 3 minutes period of testing assesses of locomotor coordination impairment induced by the compound.
Mice (N=10/group) received a single administration via oral gavage of test compound (40 mg/kg), diazepam (5 mg/kg), or vehicle (2% polyethylene glycol, 2.5% hydroxypropylmethyl cellulose solution).
On the technique in general: In the rotarod test animals must keep their balance on a rotating rod.

Entries after “also recorded” stand apart in the source; their conditions may differ.

One may read the half-life as how long it takes for the measured level to halve. As for `C#Cc1ccc2c(c1)C(c1ccccc1F)=NCc1c(-c3nc(C)no3)ncn1-2` [GL-III-23, 5-(8-ethynyl-6-(2-fluorophenyl)-4H-benzo[f]imidazo[1,5-a][1,4]diazepin-3-yl)-3-methyl-1,2,4-oxadiazole], in data set [1], the “% left after 2 hr. (Human LM)” value was 82.0 ± 0.3% and the half-life at 10 μM was found to be 504 ± 77 min. Moreover, the “Alternation rate (%)” value in data set [2] is 56.6%. Also, in data set [3], the half-life at 10 μM turned out to be 1320 ± 316 min. In addition, the “molar concentration range reached in mouse brain tissue” value (“molar concentration range reached” for short) in data set [4] is given as “micromolar concentrations”. Also, in the data set with HEPG2, the “HEPG2 LD50” value is >100 µM. Further, the “HEK293 LD50” value in the data set with HEK293 was >100 µM.
Consider `C#Cc1ccc2c(c1)C(c1ccccn1)=N[C@H](C)c1c(-c3nc(C)no3)ncn1-2` [GL-II-33, (R)-5-(8-ethynyl-4-methyl-6-(pyridin-2-yl)-4H-benzo[f]imidazo[1,5-a][1,4]diazepin-3-yl)-3-methyl-1,2,4-oxadiazole], for which the half-life at 10 μM in data set [1] was determined as 2590 ± 1110 min. Moreover, the “effect on CRS-induced working memory deficit (percent alternation rate, Y-maze)” value in data set [2] is “a trend in the reversal of CRS-induced impairment in working memory; also recorded: a trend was detected”. For the same molecule, in data set [3], the “% left after 2 hr. (MouseLM)” value is 82.0 ± 0.3% and the half-life at 10 μM is 500 ± 66 min. Also, the “molar concentration range reached” value in data set [4] is “moderate to high submicromolar concentrations”. In data set [5], the “sensorimotor impairment on rotarod (time of fall)” value (shortened to “sensorimotor impairment on rotarod”) was “no sensorimotor impairment”. Also, the “HEPG2 LD50” value with HEPG2 is >400 µM. For the same molecule, in the data set on HEK293, the “HEK293 LD50” value is >400 µM.
For the molecule `C#Cc1ccc2c(c1)C(c1ccccc1F)=N[C@@H](C)c1c(-c3nc(C)no3)ncn1-2` [GL-I-65, (S)-5-(8-ethynyl-6-(2-fluorophenyl)-4-methyl-4H-benzo[f]imidazo[1,5-a][1,4]diazepin-3-yl)-3-methyl-1,2,4-oxadiazole], in data set [1], the “Half-life (min) (HumanLM)” value came to 866 ± 213 min and the “% left after 2 hr. (Human LM)” value is given as 86.4 ± 0.3%. In data set [2], the “effect on CRS-induced working memory deficit (percent alternation rate, Y-maze)” value is listed as “significant reversal of CRS-induced impairment in working memory; also recorded: increase in alternation rate”. Moreover, in data set [3], the “Half-life (min) (MouseLM)” value is 443 ± 67 min and the “% left after 2 hr. (MouseLM)” value was 81.0 ± 0.4%. Besides, the “molar concentration range reached” value in data set [4] is given as “moderate to high submicromolar concentrations”. Moreover, in data set [5], the “sensorimotor impairment on rotarod” value is “no sensorimotor impairment”.
In the case of `C#Cc1ccc2c(c1)C(c1ccccn1)=N[C@H](C)c1c(C(=O)NC)ncn1-2` [GL-II-31, (R)-8-ethynyl-N,4-dimethyl-6-(pyridin-2-yl)-4H-benzo[f]imidazo[1,5-a][1,4]diazepine-3-carboxamide], the half-life at 10 μM in data set [1] turned out to be 1870 ± 765 min; in data set [3] it was 1840 ± 590 min. For the same molecule, the “Alternation rate (%)” value in data set [2] is reported as 56.6%. Further, the “molar concentration range reached” value in data set [4] is listed as “moderate to high submicromolar concentrations”. Further, the “sensorimotor impairment on rotarod” value in data set [5] is “no sensorimotor impairment”. Also, the “HEPG2 LD50” value with HEPG2 was >400 µM. For the same molecule, the “HEK293 LD50” value in the data set on HEK293 was >400 µM.
